Test results from paper PMC3919030 (Journal of molecular biology, 2013).

Assays:
Test in all cases: size exclusion chromatography
Format in all cases: binding
SsoVps4 [1] = biological target: T1, SsoVps4 (Saccharolobus solfataricus, UniProt Q97ZJ7); conditions: 2 mM MgCl2, pH 7.4, 4 °C; 1 mM ADP
T1 sequence (Q97ZJ7 1-372): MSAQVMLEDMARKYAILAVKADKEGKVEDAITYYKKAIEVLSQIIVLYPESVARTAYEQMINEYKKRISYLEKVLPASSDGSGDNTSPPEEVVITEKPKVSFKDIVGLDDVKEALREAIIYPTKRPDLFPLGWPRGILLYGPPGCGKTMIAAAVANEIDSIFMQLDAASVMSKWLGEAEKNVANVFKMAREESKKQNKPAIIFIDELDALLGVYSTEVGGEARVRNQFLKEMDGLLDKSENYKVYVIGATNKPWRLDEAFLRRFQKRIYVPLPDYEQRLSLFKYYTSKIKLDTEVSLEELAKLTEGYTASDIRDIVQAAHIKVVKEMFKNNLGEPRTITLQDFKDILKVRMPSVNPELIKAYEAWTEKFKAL

SsoVps4 [2] = biological target: SsoVps4 (Saccharolobus solfataricus, UniProt Q97ZJ7, E206Q); conditions: 2 mM MgCl2, pH 7.4, 4 °C, Walker B mutant
Vps4p = biological target: T2, Vps4p (Saccharomyces cerevisiae, UniProt P52917, E233Q); conditions: 2 mM MgCl2, pH 7.4, 4 °C; 1 mM ATP; Walker B mutant
T2 sequence (P52917 1-437 E233Q): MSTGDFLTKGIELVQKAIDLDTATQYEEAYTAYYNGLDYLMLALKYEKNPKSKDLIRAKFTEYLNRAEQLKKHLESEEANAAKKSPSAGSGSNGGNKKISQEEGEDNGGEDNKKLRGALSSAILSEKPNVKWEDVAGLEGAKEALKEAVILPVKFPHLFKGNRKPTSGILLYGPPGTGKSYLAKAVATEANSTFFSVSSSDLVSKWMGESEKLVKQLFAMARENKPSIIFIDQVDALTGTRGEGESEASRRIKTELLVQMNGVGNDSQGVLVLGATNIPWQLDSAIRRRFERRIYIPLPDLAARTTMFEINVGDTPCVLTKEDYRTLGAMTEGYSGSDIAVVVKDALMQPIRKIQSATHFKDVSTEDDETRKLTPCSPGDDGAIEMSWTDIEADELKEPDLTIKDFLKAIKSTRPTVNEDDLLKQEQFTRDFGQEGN

| Structure (SMILES) | size exclusion chromatography (nucleotide-induced shift of oligomer) (SsoVps4 [1]) | size exclusion chromatography (nucleotide-induced shift of oligomer) (SsoVps4 [2]; 1 mM ADP) | size exclusion chromatography (nucleotide-bound oligomer) (Vps4p) | size exclusion chromatography (nucleotide-induced shift of oligomer) (SsoVps4 [2]; 1 mM ATP) |
| --- | --- | --- | --- | --- |
| Nc1ncnc2c1ncn2[C@@H]1O[C@H](COP(=O)(O)OP(=O)(O)O)[C@@H](O)[C@H]1O [ADP] | both proteins migrated slightly more rapidly when bound to ADP than ATP | both wild type and E206Q SsoVps4 eluted as lower molecular weight complexes |  |  |
| Nc1ncnc2c1ncn2[C@@H]1O[C@H](COP(=O)(O)OP(=O)(O)OP(=O)(O)O)[C@@H](O)[C@H]1O [ATP] |  |  | ATP-bound Vps4p(E233Q) migrated more rapidly than the wild type protein | both wild type and E206Q SsoVps4 eluted as lower molecular weight complexes |
